Results reported in paper PMC3132048, “Treatment of experimental adjuvant arthritis with a novel folate receptor-targeted folic acid-aminopterin conjugate” (Arthritis Research & Therapy, 2011).
Marks after values point to notes of the source that are not given here.

Assays:
[1] = biological target: T1, human FRβ (CHO-FRβ cells) (Homo sapiens, UniProt P14207); assay: Relative affinity assay: displacement of [3H]FA from CHO-FRβ cells; type: binding; conditions: 37°C, competitor of [3H]FA, inverse molar ratio to displace 50%
T1 construct: host or cells: CHO-K1 cells
Procedure: (§1) The relative affinities of EC0746, AMT, and MTX were determined according to a previously established method except that both KB cells and CHO-FRβ cells were used as the sources of FR [33]. KB cells are a human cancer cell line known for elevated expression of FRα. CHO-FRβ cells were obtained from Manohar Ratnam, Department of Biochemistry and Cancer Biology, The University of Toledo (Toledo, OH, USA). This cell line was originally generated by stable integration and amplification of a human FRβ cDNA expression construct in CHO-K1 cells.

[2] = oral exposure, mice; cited from earlier work
rat TG-macs = assay: Viability of thioglycollate-elicited peritoneal macrophages; type: cell-based; conditions: 72-hour incubation; no effect at concentrations as high as stated
Procedure: Female Lewis rats (175 to 200 g) were purchased from Harlan Sprague Dawley (Indianapolis, IN, USA) and were allowed to acclimate for 1 week. To obtain peritoneal macrophages, rats were dosed intraperitoneally with an aged thioglycollate (TG) medium (20 ml/kg) and euthanized 3 days later. The peritoneal cavity of the animals was lavaged with 60 ml ice-cold phosphate-buffered saline to collect peritoneal exudate. The TG-elicited macrophages in the peritoneal fluids were obtained after a red cell lysing step and a 2-hour adherence in folate-free RPMI 1640 medium (Mediatech, Manassas, VA, USA) containing 1% heat-activated fetal calf serum and antibiotics. The purity of the resulting macrophage population (herein referred to as rat TG-macs) was determined to be ~90% pure based on CD11b/c expression (data not shown). […] Unless otherwise specified, all cells were maintained in the folate-free RPMI 1640 medium containing 10% heat-activated fetal calf serum and antibiotics (FFRPMI) under a 5% CO2 atmosphere.
Unlike RAW264.7 cells, rat TG-macs display little proliferative activity ex vivo and therefore were used in our studies to represent inflammatory macrophages in a low proliferative state. […] LPS (5 μg/ml) and IFNγ (100 ng/ml) were then added to the treated cells 24 hours prior to the end of incubation to stimulate the release of cytokines/chemokines, which were then detected with a rat cytokine antibody array.

[3] = Preliminary short-term toxicity / MTD in folate-deficient healthy rats; type: in vivo, rat; conditions: rat, in vivo, sc; healthy rats on folate-deficient diet, four s.c. doses in 2 weeks; read-out: Maximum tolerated dose (MTD)
Procedure: The short-term toxicity and MTD of EC0746 and AMT were evaluated in healthy rats following the standard BIW subcutaneous dosing regimen used for efficacy studies. Further, these animals were put on a folate-deficient diet for ~20 days before treatment to match the folate deficiency status of AIA rats used for therapy. The folate-deficient but nonarthritic animals were thus given increasing doses of EC0746 and AMT for two consecutive weeks on a BIW basis. […] Standard hematologic and blood chemistry parameters were examined as needed along with histopathology.

[4] = Plasma pharmacokinetics after single subcutaneous dose; type: in vivo, rat; conditions: female, Lewis, rat, plasma, sc, after single s.c. dose of unconjugated AMT 500 nmol/kg
Procedure: Female Lewis rats with jugular vein catheters (Harlan Sprague Dawley) were used to assess the plasma pharmacokinetics of EC0746 and unconjugated AMT. The animals were divided into two main groups, one given a single dose of EC0746 s.c. and the second a single dose of AMT s.c., both at 500 nmol/kg. Whole blood samples (300 μl) were collected from three animals per time point at the following time points: 1 minute, 10 minutes, 30 minutes, 1 hour, 2 hours, 3 hours, 4 hours, and 8 hours after injection. The blood samples were placed into anticoagulant tubes containing 1.7 mg/ml K3EDTA and 0.35 mg/ml N-maleoyl-β-alanine (0.35 mg/ml) in a 0.15% acetic acid solution. Plasma samples were obtained by centrifugation for 3 minutes at ~2,000 × g and stored at -80°C. The amounts of EC0746 and AMT in the plasma and the two primary metabolites of EC0746 (AMT and AMT hydrazide) were determined by liquid chromatography/mass spectrometry/mass spectrometry.

arthritis = system: arthritis; set-up: method as in PMID 16170572; conditions: murine arthritis; cited from earlier work
air-pouch inflammation = system: air-pouch inflammation; set-up: method as in PMID 16170572; conditions: murine air-pouch inflammation; cited from earlier work
RAW264.7 cells = type: cell-based, murine; conditions: RAW264.7 macrophages, data not shown
Procedure: (§2) RAW264.7 cells in 96-well plates (3.5 × 10^4 cells/well) were treated with 10-fold serial dilutions of EC0746 (≤1 μM) in FFRPMI medium without and with 100-fold molar excess of FA. After a 2-hour exposure, the drug-containing media were replaced and the cells were allowed to incubate further for 70 hours (referred in the text as a 70-hour chase). In comparison, the cells were also treated continuously with AMT for 72 hours. Four hours prior to the end of incubation, LPS was added to the treated cells at a final concentration of 100 ng/ml. Then 100 μl culture supernatants were collected for TNFα analysis by ELISA. The cell viability was assessed by adding XTT to the remaining media for an additional 4 hours following the manufacturer's instructions. To evaluation of a cytostatic effect, RAW264.7 cells seeded at 1 × 10^6 cells/well in six-well plates were subjected to 2-hour exposure and a 70-hour chase with 0, 0.1, 10, and 1000 nM EC0746 without and with excess FA. At the end of the incubation (no LPS added), the surviving cells (that is, still viable cells) were recovered and redistributed in equal numbers in fresh medium for an additional 72 hours. The cell proliferation was again assessed by the XTT assay. All results were expressed as the percentage absorbance (minus background) relative to the untreated control cells.

[5] = biological target: T2, FRα (FRα-expressing KB cells) (Homo sapiens, UniProt P15328); assay: Relative affinity assay: displacement of [3H]FA from KB cells; type: binding; conditions: 37°C, competitor of [3H]FA, inverse molar ratio to displace 50%
T2 construct: both KB cells and CHO-FRβ cells were used as the sources of FR; endogenous in cells; host or cells: KB cells
Procedure: as §1

[6] = system: adjuvant-induced arthritis; assay: Rat adjuvant-induced arthritis (AIA) model; type: in vivo; conditions: for Body weight change (%): day 24 relative to day 10
Procedure: The rats were then inoculated intradermally (at the base of tail) with 0.5 mg heat-killed M. butyricum (BD Diagnostic Systems) in 100 μl light mineral oil (Sigma-Aldrich, St Louis, MO, USA). […] For each study, two or three rats from the same colony were not induced for arthritis and were used as healthy controls.
Unless noted otherwise, all drug treatments started on day 10 after arthritis induction and lasted for two consecutive weeks with biweekly (BIW, Mondays and Thursdays) or once-weekly (QW, Mondays) dosing regimens.
EC0746 was given subcutaneously (s.c.) in a dosing range of 25 to 1,000 nmol/kg (QW or BIW); MTX was given s.c. or orally at 250 nmol/kg (BIW) or 1,650 nmol/kg (QW); and etanercept (10 mg/kg) was given s.c. once every 3 days for a 12-day span. The QW MTX dosing regimen was to mimic MTX administration in humans, and this particular dose of 1,650 nmol/kg per week (that is, 0.75 mg/kg per week) was reportedly active as an intraperitoneal agent in the AIA model. To distinguish the anti-inflammatory mechanisms of EC0746 and MTX in vivo, a therapeutically irrelevant folate-containing competitor (EC0923, molecular weight 672) was used in 500-fold molar excess to block the activities of EC0746 and MTX at 250 nmol/kg (BIW).
Formalin-fixed hind paws were examined by a board-certified veterinary radiologist who had no knowledge of the study groups. Specific criteria were used to establish a numerical grade of severity for each radiographic change: increased soft tissue volume (0 to 4), narrowing or widening of joint spaces (0 to 5), subchondral erosion (0 to 3), periosteal reaction (0 to 4), osteolysis (0 to 4), subluxation (0 to 3), and degenerative joint changes (0 to 3). Scores are limited to the tarsus, and the maximum possible score per foot was 26 [39]. The histopathological analysis was also performed in a blind fashion by an independent contract laboratory (Bolder BioPATH Inc., Boulder, CO, USA). The arthritic ankles were scored on a scale of 0 to 5 for inflammation, bone resorption, pannus formation, and cartilage damage, with a maximal histology score of 20 per foot.

[7] = system: TNFα production in RAW264.7 cells; assay: LPS-stimulated TNFα production (ELISA); type: cell-based, murine; conditions: RAW264.7 macrophages, data not shown
Procedure: as §2

[8] = biological target: T3, dihydrofolate reductase (DHFR) (Mus musculus, UniProt P00375); assay: Dihydrofolate reductase inhibition assay in RAW264.7 whole cell lysates; type: cell-based, murine; conditions: FA alone 10 μM, 2-hour pulse, 22-hour chase
T3 construct: endogenous in cells; host or cells: RAW264.7 cells (FR-positive subclone of ATCC TIB71)
T3 sequence (P00375 1-187): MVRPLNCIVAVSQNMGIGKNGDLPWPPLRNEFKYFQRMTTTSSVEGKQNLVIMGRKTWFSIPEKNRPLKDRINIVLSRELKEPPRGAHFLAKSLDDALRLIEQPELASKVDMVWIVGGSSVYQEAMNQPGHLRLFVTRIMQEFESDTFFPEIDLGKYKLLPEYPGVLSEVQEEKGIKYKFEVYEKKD
Procedure: RAW264.7 cells growing in FFRPMI medium in 10 cm cell culture dishes (BD Falcon, Lincoln Park, NJ, USA) were treated with EC0746 (100 nM), EC0746 (100 nM) plus 100-fold molar excess of FA (10 μM), or FA alone (10 μM). After a 2-hour exposure, the drug-containing media were replaced and the cells were allowed to incubate further for 22 hours in fresh FFRPMI medium (referred in the text as a 22-hour chase). Meanwhile, AMT and MTX were kept at 100 nM for the entire 24-hour incubation period. All cells were subsequently lysed in the radioimmunoprecipitation assay lysis buffer, and DHFR activities in the whole cell lysates were determined using a commercial DHFR assay kit (Sigma-Aldrich). This spectrophotometric assay monitors the enzymatic conversion of dihydrofolic acid to tetrahydrofolic acid by DHFR and the disappearance of the co-factor nicotinamide adenine dinucleotide phosphate at 340 nm. The results were normalized to the values of the untreated control cells.

[9] = set-up: method as in PMID 10726889; conditions: rats, 0.1 mg/kg; cited from earlier work
[10] = s.c., 125 μmol/kg biweekly, alone
[11] = s.c., 1,650 nmol/kg once weekly
[12] = s.c., 10 mg/kg on days 10, 13, 16, 19, 22

T2 sequence (P15328 25-257): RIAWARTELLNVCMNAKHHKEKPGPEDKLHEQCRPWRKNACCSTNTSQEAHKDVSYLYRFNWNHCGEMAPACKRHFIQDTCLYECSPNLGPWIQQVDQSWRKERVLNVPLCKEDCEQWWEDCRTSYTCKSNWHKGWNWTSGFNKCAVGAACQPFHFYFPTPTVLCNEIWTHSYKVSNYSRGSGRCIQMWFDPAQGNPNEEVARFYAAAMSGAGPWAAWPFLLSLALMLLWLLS
T1 sequence (P14207 17-255): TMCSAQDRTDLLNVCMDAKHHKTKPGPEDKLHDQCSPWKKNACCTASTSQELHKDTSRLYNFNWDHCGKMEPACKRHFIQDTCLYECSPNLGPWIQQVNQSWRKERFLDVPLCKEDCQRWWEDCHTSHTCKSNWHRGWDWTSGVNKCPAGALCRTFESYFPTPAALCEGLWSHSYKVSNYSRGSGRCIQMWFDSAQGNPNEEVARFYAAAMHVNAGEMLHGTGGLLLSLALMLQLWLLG

## Nc1nc(N)c2nc(CNc3ccc(C(=O)N[C@@H](CCC(=O)O)C(=O)O)cc3)cnc2n1 [AMT, aminopterin]
[1]
  Relative affinity value (FA = 1): 0.004
[2]
  Acute 50% lethal dose: 3 mg/kg
Rat TG-macs
  Concentration affecting TG-macs viability: > 10 µM
[3]
  MTD at 2 weeks: 0.05 µmol/kg
[4]; 500 nmol/kg, read-out: Time to maximum concentration (converted)
  Tmax: ~0.5 h
[4]; read-out: Area under the curve (converted)
  AUC: 1.02 µM·h
[4]; read-out: Elimination half-life
  half-life: ~2.33 h
[4]; read-out: Maximum concentration in plasma
  Cmax: 601 nM
arthritis
  Potency relative to MTX: ~ 20 fold
air-pouch inflammation
  Potency relative to MTX: ~ 40 fold
RAW264.7 cells
  Potency in inhibition of cell proliferation, AMT versus AMT hydrazide: equally potent
[5]
  Relative affinity value (FA = 1): 0.004
[6]; unmodified AMT mixed with FA (1:1), 500 nmol/kg s.c. biweekly, after one or two doses, severe anemia and gastrointestinal distress
  Tolerability in AIA rats: all animals treated with the simple mixture had to be euthanized
[7]
  Potency in inhibition of LPS-stimulated TNFα production, AMT versus AMT hydrazide: equally potent

## Nc1nc2ncc(CNc3ccc(C(=O)N[C@@H](CCC(=O)N[C@H](CC(=O)O)C(=O)N[C@H](CC(=O)O)C(=O)O)C(=O)O)cc3)nc2c(=O)[nH]1 [EC0923, pteroyl-γGlu-d-Asp-d-Asp, reference compound]
[6]; [10]
  Impact on development or severity of arthritis: did not have any impact
  Radiographic analysis of arthritic paws: significant joint erosions

## Nc1nc(=O)c2nc(CNc3ccc(C(=O)N[C@@H](CCC(=O)O)C(=O)O)cc3)cnc2[nH]1 [FA, folic acid]
[8]
  Effect on DHFR activity of cells: benign

## CN(Cc1cnc2nc(N)nc(N)c2n1)c1ccc(C(=O)N[C@@H](CCC(=O)O)C(=O)O)cc1 [MTX, methotrexate, reference compound]
[1]
  Relative affinity value (FA = 1): 0.005
[2]
  Acute 50% lethal dose: 89 mg/kg
Rat TG-macs
  Concentration affecting TG-macs viability: > 10 µM
[9]
  Oral bioavailability: 21%
[5]
  Relative affinity value (FA = 1): 0.018
[6]; oral, 250 nmol/kg biweekly
  Decrease in summed histology score: 73%
  Reduction in dorsal to ventral paw thickness: 63%
[6]; oral, 1,650 nmol/kg (0.75 mg/kg) once weekly
  Weight loss due to disease progression: ~ 10%
[6]; p.o., 250 nmol/kg biweekly from day 10
  Splenomegaly (percentage increase in spleen weight relative to healthy rats): 42 ± 17%
[6]; p.o., 250 nmol/kg biweekly from day 10, paw weight day 24
  Inhibition in paw edema (%): 70 ± 5%
[6]; p.o., 250 nmol/kg biweekly
  Body weight change (%): -14 ± 2%
[6]; p.o., 1,650 nmol/kg once weekly, calculated based on arthritis scores on day 24
  Inhibition in paw edema (%): 47 ± 10^f %
[6]; p.o., 1,650 nmol/kg once weekly
  Body weight change (%): -10 ± 2%
[6]; s.c., 250 nmol/kg biweekly from day 10
  Splenomegaly (percentage increase in spleen weight relative to healthy rats): 24 ± 3%
[6]; s.c., 250 nmol/kg biweekly from day 10, paw weight day 24
  Inhibition in paw edema (%): 78 ± 10%
[6]; s.c., 250 nmol/kg biweekly plus EC0923 125 μmol/kg, P > 0.05
  Anti-arthritic activity in presence of EC0923 competitor: not significantly blocked
[6]; s.c., 250 nmol/kg biweekly
  Body weight change (%): -2 ± 4%
[6]; [11]
  Weight loss: ~ 7%
  Body weight change (%): -7 ± 8%
[6]; s.c., 1,650 nmol/kg once weekly, calculated based on arthritis scores on day 24
  Inhibition in paw edema (%): 63 ± 13^f %

## Etanercept
[6]; s.c., 10 mg/kg every 3 days
  Splenomegaly (percentage increase in spleen weight relative to healthy rats): 42 ± 7%
  Body weight change (%): -15 ± 2%
[6]; s.c., 10 mg/kg every 3 days, calculated based on arthritis scores on day 24
  Inhibition in paw edema (%): 46 ± 9^f %
[6]; [12]
  Decrease in summed histology score: 43%
  Reduction in bone resorption (histology): 55%
  Reduction in dorsal to ventral paw thickness: 40%
  Reduction in inflammation (histology): 42%
